From patent US20230058171A1, “NEW ORAL PHARMACEUTICAL COMPOSITION FOR CANCER THERAPY” (BOEHRINGER INGELHEIM INTERNATIONAL GMBH, priority 2021, published 2023)
Where two headings read alike, the source gives them in different places.

Experiment: Preliminary pharmacokinetics in trial 1403-0001 (Arm A D1 q3w, Arm B D1 D8 q4w)
Type: in vivo, human
Settings: for % AUCtz-∞ / AUC0-∞, norm / CL/F / Cmax, norm / AUC(0-inf) / Cmax / Vd/F / half-life: gMean; for Cmax, norm (gMean) / % AUCtz-∞ (gMean) / AUC0-∞, norm, gMean (gCV [%]) / CL/F (gMean): Arm A D1 q3w; for AUC(0-inf) / Cmax / Vd/F / half-life / Tmax: human, plasma, oral; for AUC(0-inf): read-out: AUC0-∞; for Cmax: read-out: Cmax; for Vd/F: read-out: Vz/F; for half-life: read-out: t1/2 (converted); for Tmax: median, read-out: tmax
Text: Preliminary PK data were available from the first 45 treated patients in study 1403-0001. The exploratory PK analysis is based on planned blood sampling time-points and the results are subject to change because not all samples from these patients have been analyzed yet. Therefore, AUCs may be incomplete. In addition, information on the absorption, distribution, and elimination of the MDM2 antagonist of formula I are descriptive given the limited exploratory PK results available up to this point in time.
Consequently the preliminary PK results support the dose selection of 45 mg (and alternatively even of 30 mg) combined with the once in three weeks (D1 q3w) dose regimen. The tmax of the MDM2 antagonist of formula I is generally between 4 and 6 hours after tablet intake.

[1] = 5 mg, Day 1, D1 D8 q4w (Arm B), N=3
[2] = 5 mg, Day 8, D1 D8 q4w (Arm B), N=3
[3] = 10 mg, Day 1, D1 D8 q4w (Arm B), N=3
[4] = 10 mg, Day 8, D1 D8 q4w (Arm B), N=3
[5] = 15 mg, Day 1, D1 D8 q4w (Arm B), N=3
[6] = 15 mg, Day 8, D1 D8 q4w (Arm B), N=2
[7] = 20 mg, Day 1, D1 D8 q4w (Arm B), N=3
[8] = 20 mg, Day 8, D1 D8 q4w (Arm B), N=3
[9] = 30 mg, Day 1, D1 D8 q4w (Arm B), N=4
[10] = 30 mg, Day 8, D1 D8 q4w (Arm B), N=3
[11] = 45 mg, Day 1, D1 D8 q4w (Arm B), N=2
[12] = 60 mg, Day 1, D1 D8 q4w (Arm B), N=2

In the case of Cc1c(C(=O)O)ccc2c3n(nc12)[C@@H]1[C@H](C3)N(CC2CC2)[C@@]2(C(=O)Nc3cc(Cl)ccc32)[C@H]1c1cccc(Cl)c1F [MDM2-antagonist of formula I, (2′S,3′S,3a'S,10a'S)-6-chloro-3′-(3-chloro-2-fluorophenyl)-1′-(cyclopropylmethyl)-6′-methyl-2-oxo-1,2,3′,3a′,10′,10a′-hexahydro-1′H-spiro[indole-3,2′-pyrrolo[2′,3′:4,5]pyrrolo[1,2-b]indazole]-7′-carboxylic acid], the “% AUCtz-∞” value [1] is reported as 10.2%, the “AUC0-∞, norm” value [1] is reported as 3530 nmol·h/L/mg and the CL/F [1] is reported as 7.99 mL/min. The “Cmax, norm” value [1] was 51.9 nmol/L/mg, the “% AUCtz-∞” value [2] was 30.2% and the “AUC0-∞, norm” value [2] was 3860 nmol·h/L/mg. The CL/F [2] was 7.31 mL/min, the “Cmax, norm” value [2] was 67.2 nmol/L/mg and the “% AUCtz-∞” value [3] was 10.8%. For the same compound, the “AUC0-∞, norm” value [3] was 5230 nmol·h/L/mg, the CL/F [3] was 5.39 mL/min and the “Cmax, norm” value [3] was 63.8 nmol/L/mg. The “% AUCtz-∞” value [4] was 31.6%, the “AUC0-∞, norm” value [4] was 4840 nmol·h/L/mg and the CL/F [4] was 5.82 mL/min. For the same compound, the “Cmax, norm” value [4] was 71.4 nmol/L/mg, the “% AUCtz-∞” value [5] was 2.89% and the “AUC0-∞, norm” value [5] was 2520 nmol·h/L/mg. The CL/F [5] was 11.2 mL/min, the “Cmax, norm” value [5] was 55.4 nmol/L/mg and the “% AUCtz-∞” value [6] was 14.8%. For the same compound, the “AUC0-∞, norm” value [6] was 1720 nmol·h/L/mg, the CL/F [6] was 16.4 mL/min and the “Cmax, norm” value (15 mg, Day 8, D1 D8 q4w (Arm B), N=3) was 51.7 nmol/L/mg. For the same compound, the “% AUCtz-∞” value [7] was 8.63%, the “AUC0-∞, norm” value [7] was 4440 nmol·h/L/mg and the CL/F [7] was 6.34 mL/min. The “Cmax, norm” value [7] was 68.4 nmol/L/mg, the “% AUCtz-∞” value [8] was 25.9% and the “AUC0-∞, norm” value [8] was 3050 nmol·h/L/mg. The CL/F [8] was 9.22 mL/min, the “Cmax, norm” value [8] was 60.9 nmol/L/mg and the “% AUCtz-∞” value [9] was 6.72%. The “AUC0-∞, norm” value [9] was 2660 nmol·h/L/mg, the CL/F [9] was 10.6 mL/min and the “Cmax, norm” value [9] was 48.0 nmol/L/mg. For the same compound, the “% AUCtz-∞” value [10] was 18.9%, the “AUC0-∞, norm” value [10] was 2160 nmol·h/L/mg and the CL/F [10] was 13.0 mL/min. The “Cmax, norm” value [10] was 44.3 nmol/L/mg, the “% AUCtz-∞” value [11] was 4.72% and the “AUC0-∞, norm” value [11] was 2150 nmol·h/L/mg. For the same compound, the CL/F [11] was 13.1 mL/min, the “Cmax, norm” value [11] was 51.7 nmol/L/mg and the “% AUCtz-∞” value [12] was 7.08%. For the same compound, the “AUC0-∞, norm” value [12] was 1460 nmol·h/L/mg, the CL/F [12] was 19.3 mL/min and the “Cmax, norm” value [12] was 32.7 nmol/L/mg. For the same compound, the “Cmax, norm” value (60 mg, Day 8, D1 D8 q4w (Arm B), N=2) was 31.5 nmol/L/mg, the “Cmax, norm (gMean)” value (20 mg, N=2) was 58.2 nmol/L/mg and the “% AUCtz-∞ (gMean)” value (30 mg, N=3) was 24.6%. For the same compound, the “AUC0-∞, norm, gMean (gCV [%])” value (30 mg, N=3) was 3760 (46.8) nmol*h/L/mg, the “CL/F (gMean)” value (30 mg, N=3) was 7.50 mL/min and the “Cmax, norm (gMean)” value (30 mg, N=3) was 96.4 nmol/L/mg. For the same compound, the “% AUCtz-∞ (gMean)” value (45 mg, N=6) was 29.2%, the “AUC0-∞, norm, gMean (gCV [%])” value (45 mg, N=6) was 3040 (53.6) nmol*h/L/mg and the “CL/F (gMean)” value (45 mg, N=6) was 9.28 mL/min. For the same compound, the “Cmax, norm (gMean)” value (45 mg, N=6) was 60.2 nmol/L/mg, the “% AUCtz-∞ (gMean)” value (50 mg, N=4) was 19.7% and the “AUC0-∞, norm, gMean (gCV [%])” value (50 mg, N=4) was 6280 (37.3) nmol*h/L/mg. For the same compound, the “CL/F (gMean)” value (50 mg, N=4) was 4.49 mL/min, the “Cmax, norm (gMean)” value (50 mg, N=4) was 74.8 nmol/L/mg and the “% AUCtz-∞ (gMean)” value (60 mg, N=6) was 3.71%. The “AUC0-∞, norm, gMean (gCV [%])” value (60 mg, N=6) was 2710 (33.4) nmol*h/L/mg, the “CL/F (gMean)” value (60 mg, N=6) was 10.4 mL/min and the “Cmax, norm (gMean)” value (60 mg, N=7) was 54.5 nmol/L/mg. The “% AUCtz-∞ (gMean)” value (80 mg, N=2) was 2.54%, the “AUC0-∞, norm, gMean (gCV [%])” value (80 mg, N=2) was 2570 (29.2) nmol*h/L/mg and the “CL/F (gMean)” value (80 mg, N=2) was 11.0 mL/min. For the same compound, the “Cmax, norm (gMean)” value (80 mg, N=2) was 49.2 nmol/L/mg, the AUC(0-inf) [1] was 17.6 µM·h and the Cmax [1] was 260 nM. It also gave a Vd/F [1] of 38.2 L, a half-life [1] of 55.3 h and a Tmax [1] of 4 h. The AUC(0-inf) [2] was 19.3 µM·h, the Cmax [2] was 336 nM and the Vd/F [2] was 29.2 L. The half-life [2] was 46.2 h, the Tmax [2] was 4 h and the AUC(0-inf) [3] was 52.3 µM·h. For the same compound, the Cmax [3] was 638 nM.
